Laboratory results published in PubChem BioAssay (NCI).
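Dose response: 5 concentrations. Exposure: 48 h. Format: 96-well plates. Endpoint: linear interpolation; highest concentration if not reached. At the GI50, growth is halved. TGI is the concentration that stops growth completely.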

Tests used:
Assay in all cases: NCI anticancer screen, dose series, 48 h
786-0 renal = test system: 786-0 renal
A498 renal = test system: A498 renal
ACHN renal = test system: ACHN renal
BT-549 breast = test system: BT-549 breast
CAKI-1 renal = test system: CAKI-1 renal
CCRF-CEM leukemia = test system: CCRF-CEM leukemia
COLO 205 colon = test system: COLO 205 colon
DU-145 prostate = test system: DU-145 prostate
EKVX NSCLC = test system: EKVX NSCLC
HCT-116 colon = test system: HCT-116 colon
HCT-15 colon = test system: HCT-15 colon
HL-60(TB) leukemia = test system: HL-60(TB) leukemia
HOP-62 NSCLC = test system: HOP-62 NSCLC
HS 578T breast = test system: HS 578T breast
HT29 colon = test system: HT29 colon
IGROV1 ovarian = test system: IGROV1 ovarian
K-562 leukemia = test system: K-562 leukemia
KM12 colon = test system: KM12 colon
LOX IMVI melanoma = test system: LOX IMVI melanoma
M14 melanoma = test system: M14 melanoma
MALME-3M melanoma = test system: MALME-3M melanoma
MCF7 breast = test system: MCF7 breast
MDA-MB-231 breast = test system: MDA-MB-231 breast
MDA-MB-435 = test system: MDA-MB-435
MOLT-4 leukemia = test system: MOLT-4 leukemia
NCI-H226 lung = test system: NCI-H226 lung
NCI-H23 lung = test system: NCI-H23 lung
NCI/ADR-RES ovarian = test system: NCI/ADR-RES ovarian
OVCAR-3 ovarian = test system: OVCAR-3 ovarian
OVCAR-5 ovarian = test system: OVCAR-5 ovarian
OVCAR-8 ovarian = test system: OVCAR-8 ovarian
PC-3 prostate = test system: PC-3 prostate
RPMI-8226 leukemia = test system: RPMI-8226 leukemia
RXF 393 renal = test system: RXF 393 renal
SF-268 CNS = test system: SF-268 CNS
SF-295 CNS = test system: SF-295 CNS
SF-539 CNS = test system: SF-539 CNS
SK-MEL-2 melanoma = test system: SK-MEL-2 melanoma
SK-MEL-28 melanoma = test system: SK-MEL-28 melanoma
SK-MEL-5 melanoma = test system: SK-MEL-5 melanoma
SK-OV-3 ovarian = test system: SK-OV-3 ovarian
SN12C renal = test system: SN12C renal
SNB-19 CNS = test system: SNB-19 CNS
SNB-75 CNS = test system: SNB-75 CNS
SW-620 colon = test system: SW-620 colon
T-47D breast = test system: T-47D breast
TK-10 renal = test system: TK-10 renal
U251 CNS = test system: U251 CNS
UACC-257 melanoma = test system: UACC-257 melanoma
UACC-62 melanoma = test system: UACC-62 melanoma
UO-31 renal = test system: UO-31 renal
A549 NSCLC = test system: A549 NSCLC
HCC-2998 colon = test system: HCC-2998 colon
HOP-92 NSCLC = test system: HOP-92 NSCLC
NCI-H460 lung = test system: NCI-H460 lung
NCI-H522 lung = test system: NCI-H522 lung
OVCAR-4 ovarian = test system: OVCAR-4 ovarian

## O=C1CC(c2ccc(O)cc2)C2(O1)C(=O)OC(C(O)CO)C2O (stereo not drawn)
786-0 renal
  TGI: > 100 µM
A498 renal
  TGI: > 100 µM
ACHN renal
  TGI: > 100 µM
BT-549 breast
  TGI: > 100 µM
CAKI-1 renal
  TGI: > 100 µM
CCRF-CEM leukemia
  TGI: > 100 µM
COLO 205 colon
  TGI: > 100 µM
DU-145 prostate
  TGI: > 100 µM
EKVX NSCLC
  TGI: > 100 µM
HCT-116 colon
  TGI: > 100 µM
HCT-15 colon
  TGI: > 100 µM
HL-60(TB) leukemia
  TGI: > 100 µM
HOP-62 NSCLC
  TGI: > 100 µM
HS 578T breast
  TGI: > 100 µM
HT29 colon
  TGI: > 100 µM
IGROV1 ovarian
  TGI: > 100 µM
K-562 leukemia
  TGI: > 100 µM
KM12 colon
  TGI: > 100 µM
LOX IMVI melanoma
  TGI: > 100 µM
M14 melanoma
  TGI: > 100 µM
MALME-3M melanoma
  TGI: > 100 µM
MCF7 breast
  TGI: > 100 µM
MDA-MB-231 breast
  TGI: > 100 µM
MDA-MB-435
  TGI: > 100 µM
MOLT-4 leukemia
  TGI: > 100 µM
NCI-H226 lung
  TGI: > 100 µM
NCI-H23 lung
  TGI: > 100 µM
NCI/ADR-RES ovarian
  TGI: > 100 µM
OVCAR-3 ovarian
  TGI: > 100 µM
OVCAR-5 ovarian
  TGI: > 100 µM
OVCAR-8 ovarian
  TGI: > 100 µM
PC-3 prostate
  TGI: > 100 µM
RPMI-8226 leukemia
  TGI: > 100 µM
RXF 393 renal
  TGI: > 100 µM
SF-268 CNS
  TGI: > 100 µM
SF-295 CNS
  TGI: > 100 µM
SF-539 CNS
  TGI: > 100 µM
SK-MEL-2 melanoma
  TGI: > 100 µM
SK-MEL-28 melanoma
  TGI: > 100 µM
SK-MEL-5 melanoma
  TGI: > 100 µM
SK-OV-3 ovarian
  TGI: > 100 µM
SN12C renal
  TGI: > 100 µM
SNB-19 CNS
  TGI: > 100 µM
SNB-75 CNS
  TGI: > 100 µM
SW-620 colon
  TGI: > 100 µM
T-47D breast
  TGI: > 100 µM
TK-10 renal
  TGI: > 100 µM
U251 CNS
  TGI: > 100 µM
UACC-257 melanoma
  TGI: > 100 µM
UACC-62 melanoma
  TGI: > 100 µM
UO-31 renal
  TGI: > 100 µM

## CCN(CC)CC(C)Nc1ccc([N+](=O)[O-])c2sc3ccccc3c(=O)c12 (stereo not drawn)
A498 renal
  GI50: 1.49 µM
  TGI: 10.5 µM
A549 NSCLC
  GI50: 0.938 µM
  TGI: 5.04 µM
ACHN renal
  GI50: 0.895 µM
  TGI: 4.3 µM
BT-549 breast
  GI50: 5.03 µM
  TGI: 21.4 µM
CAKI-1 renal
  GI50: 0.657 µM
  TGI: 4.09 µM
CCRF-CEM leukemia
  GI50: 2.44 µM
  TGI: 10.5 µM
COLO 205 colon
  GI50: 0.941 µM
  TGI: 3.35 µM
DU-145 prostate
  GI50: 1.49 µM
  TGI: 9.79 µM
EKVX NSCLC
  GI50: 2.79 µM
  TGI: 23.4 µM
HCC-2998 colon
  GI50: 2.21 µM
  TGI: 11.9 µM
HCT-116 colon
  GI50: 1.41 µM
  TGI: 4.49 µM
HCT-15 colon
  GI50: 1.6 µM
  TGI: 23.8 µM
HL-60(TB) leukemia
  GI50: 2.82 µM
  TGI: 11.7 µM
HOP-62 NSCLC
  GI50: 2.28 µM
  TGI: 12.3 µM
HOP-92 NSCLC
  GI50: 1.39 µM
HS 578T breast
  GI50: 2.72 µM
  TGI: 13.4 µM
HT29 colon
  GI50: 2.58 µM
  TGI: > 33.2 µM
IGROV1 ovarian
  GI50: 1.08 µM
  TGI: 4.18 µM
K-562 leukemia
  GI50: 1.46 µM
  TGI: 3.74 µM
KM12 colon
  GI50: 2.14 µM
  TGI: 13.5 µM
LOX IMVI melanoma
  GI50: 1.02 µM
  TGI: 2.39 µM
M14 melanoma
  GI50: 1.68 µM
  TGI: 4.03 µM
MALME-3M melanoma
  GI50: 1.31 µM
  TGI: 3.76 µM
MCF7 breast
  GI50: 0.452 µM
  TGI: 2.36 µM
MDA-MB-231 breast
  GI50: 2.16 µM
  TGI: 9.09 µM
MDA-MB-435
  GI50: 2.15 µM
  TGI: 8.33 µM
NCI-H226 lung
  GI50: 1.09 µM
  TGI: 3.72 µM
NCI-H23 lung
  GI50: 2.42 µM
  TGI: 16.1 µM
NCI-H460 lung
  GI50: 0.401 µM
  TGI: 2.14 µM
NCI-H522 lung
  GI50: 1.45 µM
  TGI: 3.91 µM
NCI/ADR-RES ovarian
  GI50: 2.65 µM
  TGI: > 58.5 µM
OVCAR-3 ovarian
  GI50: 2.88 µM
  TGI: 11.5 µM
OVCAR-4 ovarian
  GI50: 3.48 µM
  TGI: > 100 µM
OVCAR-5 ovarian
  GI50: 3.63 µM
  TGI: > 100 µM
OVCAR-8 ovarian
  GI50: 2.58 µM
  TGI: > 100 µM
PC-3 prostate
  GI50: 2.52 µM
  TGI: > 100 µM
RXF 393 renal
  GI50: 1.65 µM
  TGI: 5.71 µM
SF-268 CNS
  GI50: 2.71 µM
  TGI: 18.5 µM
SF-295 CNS
  GI50: 1.4 µM
  TGI: 9.95 µM
SF-539 CNS
  GI50: 2 µM
  TGI: 7.56 µM
SK-MEL-2 melanoma
  GI50: 1.94 µM
  TGI: 5.04 µM
SK-MEL-28 melanoma
  GI50: 1.95 µM
  TGI: 4.56 µM
SK-MEL-5 melanoma
  GI50: 1.08 µM
  TGI: 2.26 µM
SK-OV-3 ovarian
  GI50: 1.87 µM
  TGI: 13.2 µM
SN12C renal
  GI50: 1.93 µM
  TGI: 23.5 µM
SNB-19 CNS
  GI50: 2.07 µM
  TGI: 32.7 µM
SNB-75 CNS
  GI50: 3.64 µM
  TGI: 17.2 µM
SW-620 colon
  GI50: 1.25 µM
  TGI: 4.13 µM
T-47D breast
  GI50: 2.05 µM
  TGI: 13.2 µM
TK-10 renal
  GI50: 1.91 µM
  TGI: 54.2 µM
U251 CNS
  GI50: 1.46 µM
  TGI: 10.7 µM
UACC-257 melanoma
  GI50: 1.68 µM
  TGI: 4.15 µM
UACC-62 melanoma
  GI50: 1.09 µM
  TGI: 2.52 µM
UO-31 renal
  GI50: 1 µM
  TGI: 3.29 µM
